Source: patent US6747063B2, “Combination therapy for treatment of erectile dysfunction” (Cellegy Pharmaceuticals, Inc., priority 1996, dated 2004)
Several values for one entry are separate records, joined by “and”; a condition that tells them apart may be missing. Identical values can stand only once. No end group written: not given here.

What was measured:
[1] = system: human cavernous artery and cavernosal smooth muscle; conditions: cited from earlier work; for interaction of relaxant effects of the two agents: human cavernous artery and cavernosal smooth muscle; for relaxation response: isolated cavernous artery and corpus cavernosum
[2] = system: penile erection in patients with previously diagnosed ED; assay: Erectile response (Rigiscan tumescence and rigidity) after intracavernous injection, patients with no prior PGE1; type: in vivo, human; conditions: Phase 1 (n=9)
[3] = system: penile pain in patients using PGE1; conditions: cited from earlier work
[4] = system: penile pain in patients with previously diagnosed ED; assay: Patient-reported drug-related pain after intracavernous injection, patients with no prior PGE1; type: in vivo, human; conditions: Phase 2; IC PGE1 5 and 15 μg alone or with SNP 50 μg
Experimental: Patients were fifted with the Rigiscan™ tumescence and rigidity recording device. The patients were injected with the intracavernous (IC) drug using up to 2 different doses (PGE1 alone or in combination with sodium nitroprusside (SNP50 μg)) and monitored in real-time for their erectile response. Patients were only given a second injection (higher dose PGE1) if the response to the first injection was less than 70% of maximum tumescence and rigidity. In addition, patients were asked to report any occurrence of pain specific to the injection, but not related to acute discomfort associated with the needle prick.

[5] = system: penile pain in patients with prior use of PGE1; assay: Penile pain in patients with clinical history of pain with prostaglandin therapy (case reports); conditions: human, in vivo
Experimental: (§1) As detailed below, one of three different modes of administration of NO producing agents were used depending upon the patient. In particular, each of these individuals received a NO donor either through the use of a nitrospray such as Nitrolingual™ or a transdermal patch delivering a NO donor compound, and in three cases, a combination of PGE1 and 50 μg of SNP (in saline or phosphate buffered saline (PBS)).

[6] = system: penile erection in patients with prior use of PGE1; assay: Erection in patients with clinical history of pain with prostaglandin therapy (case reports); type: in vivo, human; conditions: Case No. 2; 10 μg PGE1 at home
Experimental: as §1

[7] = in vivo; cited from earlier work

Which results are given for “vasoactive intestinal peptide (HSDAVFTDNYTRLRKQMAVKKYLNSILN; ends and bridges not checked; UniProt P01282 125-152, looked up) [VIP]”?
interaction of relaxant effects of the two agents [1]: non-synergistic independent relaxant effects; relaxation response [1]: not capable of causing concentration dependent relaxation responses

Which results are given for `CCCCC[C@H](O)/C=C/[C@H]1[C@H](O)CC(=O)[C@@H]1CCCCCCC(=O)O` [PGE1, prostaglandin E1]?
patients with a poor response to both injections ([2]; IC PGE1 5 μg at 1st visit, PGE1 5 μg+SNP 50 μg at 2nd visit): 4 of 9; patients who experienced full tumescence ([2]; lowest dose of PGE1 alone (5 μg IC)): 2/9; patients reporting a pain response ([3]; repeated / prolonged use of PGE1): 40 to 45% and 40-45%; individuals with a pain response / frequency of pain per injection ([3]; single use of PGE1): 3 to 10%; men reporting penile pain ([3]; transurethral administration, clinic testing): 35.7%; patients who experienced drug-related pain [4]: None; duration of pain [5]: three to four hours; erectile response [6]: poor response

For `O=[N+]([O-])OCC(CO[N+](=O)[O-])O[N+](=O)[O-]` [glyceryl trinitrate], which concentration in plasma [7] is on record?
Its concentration in plasma is 200 to 400 pg/mL.

For `[NH-]c1c[n+](N2CCOCC2)no1` [SIN-1, 3-morpholinosydnonimine molsidomine], which “interaction of relaxant effects of the two agents” value [1] is on record?
The value was “non-synergistic independent relaxant effects”.

And the relaxation response [1]?
Its relaxation response is “capacity to induce complete relaxations”.
